From patent US9365522B2, “Pyrazole amide derivative” (AMGEN INC., priority 2015, dated 2016) come the findings set out here.

This test has as its target T1, human RORγ-LBD (Homo sapiens, UniProt P51449).
T1 construct: made in house; host or cells: E. coli (BL-21)
T1 sequence (P51449 262-518): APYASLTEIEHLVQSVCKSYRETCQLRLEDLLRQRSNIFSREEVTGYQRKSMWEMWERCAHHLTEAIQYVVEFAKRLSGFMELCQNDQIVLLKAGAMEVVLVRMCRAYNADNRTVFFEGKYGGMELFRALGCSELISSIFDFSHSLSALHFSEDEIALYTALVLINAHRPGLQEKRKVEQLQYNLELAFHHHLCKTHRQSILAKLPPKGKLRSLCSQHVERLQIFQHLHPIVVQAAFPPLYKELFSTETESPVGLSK
As to the kind of experiment: ROR gamma coactivator peptide recruitment Alphascreen assay (RORγ-LBD binding to GRIP1 coactivator peptide). Type of test: biochemical. Particulars: 5 nM human RORγ-LBD, 30 nM 7-β-hydroxycholesterol, 50 nM biotinylated GRIP1 coactivator peptide, overnight incubation at room temperature; read-out: result (pIC50, RORγ coactivator peptide recruitment Alphascreen assay) (converted). In outline:
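Alphascreen proximity read-out after overnight room-temperature incubation, yielding pIC50 from 1-in-2 compound series (2.5% DMSO final). Mixture: 50 nM biotin-GRIP1 peptide, 30 nM 7-β-hydroxycholesterol agonist, 5 nM recombinant 6×His:Flag human RORγ-LBD (aa 262-518), 50 mM HEPES pH 7.4.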
For orientation: Alpha assays give light when donor and acceptor beads are brought close together.

`CC1(C)CC(CN(CC(=O)c2c(Cl)cccc2Cl)C(=O)c2cnn([C@H]3CC[C@H](C(=O)O)CC3)c2C(F)(F)F)C1` [Example 521, trans-4-(4-((2-(2,6-dichlorophenyl)-2-oxoethyl)((3,3-dimethylcyclobutyl)methyl)carbamoyl) 5-(trifluoromethyl)-1H-pyrazol-1-yl)cyclohexanecarboxylic acid]: the IC50 was 1.86 nM.

In the case of `Cc1cc(Cl)c(C(=O)CN(Cc2cc(F)c(C(F)(F)F)c(F)c2)C(=O)c2cnn([C@H]3CC[C@H](C(=O)O)CC3)c2C(F)(F)F)c(Cl)c1` [Example 522, trans-4-(4-((2-(2,6-dichloro-4-methylphenyl)-2-oxoethyl)(3,5-difluoro-4-(trifluoromethyl)benzyl)carbamoyl)-5-(trifluoromethyl)-1H-pyrazol-1-yl)cyclohexanecarboxylic acid], the IC50 is 2.09 nM.

For `CC(C)(C)CN(CCc1c(Cl)cccc1Cl)C(=O)c1cnn([C@H]2CC[C@H](C(=O)O)CC2)c1C(F)(F)F` [Example 523, trans-4-(4-((2-(2,6-dichlorophenyl)ethyl)(2,2-dimethylpropyl)carbamoyl)-5-(trifluoromethyl)-1H-pyrazol-1-yl)cyclohexanecarboxylic acid], the IC50 was 8.71 nM. The result for `CC(C)(C)CN(C[C@H](O)c1c(Cl)cccc1Cl)C(=O)c1cnn([C@H]2CC[C@H](C(=O)O)CC2)c1C(F)(F)F` [Example 524, trans-4-(4-(((2R)-2-(2,6-dichlorophenyl)-2-hydroxyethyl)(2,2-dimethylpropyl)carbamoyl)-5-(trifluoromethyl)-1H-pyrazol-1-yl)cyclohexanecarboxylic acid] reads 77.6 nM; that for `CC1(C)CCC(N(CC(=O)c2c(Cl)cccc2Cl)C(=O)c2cnn([C@H]3CC[C@H](C(=O)O)CC3)c2C(F)(F)F)CC1` [Example 525, trans-4-(4-((2-(2,6-dichlorophenyl)-2-oxoethyl)(4,4-dimethylcyclohexyl)carbamoyl)-5-(trifluoromethyl)-1H-pyrazol-1-yl)cyclohexanecarboxylic acid], 5.89 nM.

On to `O=C(c1cnn([C@H]2CC[C@H](C(=O)O)CC2)c1C(F)(F)F)N(CCc1c(Cl)cccc1Cl)Cc1ccc(C(F)(F)F)cc1` [Example 526, trans-4-(4-((2-(2,6-dichlorophenyl)ethyl)(4-(trifluoromethyl)benzyl)carbamoyl)-5-(trifluoromethyl)-1H-pyrazol-1-yl)cyclohexanecarboxylic acid], for which the IC50 is 5.89 nM. As for `O=C(CN(Cc1ccc(C(F)(F)F)cc1)C(=O)c1cnn([C@H]2CC[C@H](C(=O)O)CC2)c1C(F)(F)F)c1c(Cl)cccc1Cl` [Example 527, trans-4-(4-((2-(2,6-dichlorophenyl)-2-oxoethyl)(4-(trifluoromethyl)benzyl)carbamoyl)-5-(trifluoromethyl)-1H-pyrazol-1-yl)cyclohexanecarboxylic acid], the figure is 8.32 nM; as for `Cc1cc(Cl)c(C(=O)CN(Cc2ccc(C(F)(F)F)cc2)C(=O)c2cnn([C@H]3CC[C@H](C(=O)O)CC3)c2C(F)(F)F)c(Cl)c1` [Example 528, trans-4-(4-((2-(2,6-dichloro-4-methylphenyl)-2-oxoethyl)(4-(trifluoromethyl)benzyl)carbamoyl)-5-(trifluoromethyl)-1H-pyrazol-1-yl)cyclohexanecarboxylic acid], 4.17 nM. As for `CO[C@H](CN(CC(C)(C)C)C(=O)c1cnn([C@H]2CC[C@H](C(=O)O)CC2)c1C(F)(F)F)c1c(Cl)cc(C)cc1Cl` [Example 530, trans-4-(4-(((2S)-2-(2,6-dichloro-4-methylphenyl)-2-methoxyethyl)(2,2-dimethylpropyl)carbamoyl)-5-(trifluoromethyl)-1H-pyrazol-1-yl)cyclohexanecarboxylic acid], the figure is 51.3 nM; as for `CO[C@@H](CN(CC(C)(C)C)C(=O)c1cnn([C@H]2CC[C@H](C(=O)O)CC2)c1C(F)(F)F)c1c(Cl)cc(C)cc1Cl` [Example 531, trans-4-(4-(((2R)-2-(2,6-dichloro-4-methylphenyl)-2-methoxyethyl)(2,2-dimethylpropyl)carbamoyl)-5-(trifluoromethyl)-1H-pyrazol-1-yl)cyclohexanecarboxylic acid], 1070 nM; as for `Cc1cc(Cl)c(C(=O)CN(CC2CCC(C)(C)CC2)C(=O)c2cnn([C@H]3CC[C@](C)(C(=O)O)CC3)c2C(F)(F)F)c(Cl)c1` [Example 532, trans-4-(4-((2-(2,6-dichloro-4-methylphenyl)-2-oxoethyl)((4,4-dimethylcyclohexyl)methyl)carbamoyl)-5-(trifluoromethyl)-1H-pyrazol-1-yl)-1-methylcyclohexanecarboxylic acid], 7.41 nM. The result for `Cc1cc(Cl)c(C(=O)CN(CC2CCCCC2)C(=O)c2cnn([C@H]3CC[C@](C)(C(=O)O)CC3)c2C(F)(F)F)c(Cl)c1` [Example 533, trans-4-(4-((cyclohexylmethyl)(2-(2,6-dichloro-4-methylphenyl)-2-oxoethyl)carbamoyl)-5-(trifluoromethyl)-1H-pyrazol-1-yl)-1-methylcyclohexanecarboxylic acid] reads 1.48 nM; that for `CC1(C)CCC(N(CCc2c(Cl)cccc2Cl)C(=O)c2cnn([C@H]3CC[C@H](C(=O)O)CC3)c2C(F)(F)F)CC1` [Example 534, trans-4-(4-((2-(2,6-dichlorophenyl)ethyl)(4,4-dimethylcyclohexyl)carbamoyl)-5-(trifluoromethyl)-1H-pyrazol-1-yl)cyclohexanecarboxylic acid], 7.94 nM; that for `Cc1cc(Cl)c(C(=O)CN(CC2CCC(C)(C)CC2)C(=O)c2cnn([C@H]3CC[C@H](C(=O)O)CC3)c2C(F)(F)F)c(Cl)c1` [Example 535, trans-4-(4-((2-(2,6-dichloro-4-methylphenyl)-2-oxoethyl)((4,4-dimethylcyclohexyl)methyl)carbamoyl)-5-(trifluoromethyl)-1H-pyrazol-1-yl)cyclohexanecarboxylic acid], 1.32 nM. `Cc1cc(Cl)c(C(=O)CN(C(=O)c2cnn([C@H]3CC[C@H](C(=O)O)CC3)c2C(F)(F)F)[C@H]2C[C@H](C(C)(C)C)C2)c(Cl)c1` [Example 536, trans-4-(4-((2-(2,6-dichloro-4-methylphenyl)-2-oxoethyl)(trans-3-(2-methyl-2-propanyl)cyclobutyl)carbamoyl)-5-(trifluoromethyl)-1H-pyrazol-1-yl)cyclohexanecarboxylic acid]: the IC50 is 9.55 nM. As for `Cc1cc(Cl)c(C(=O)CN(CC2CCCCC2)C(=O)c2cnn([C@H]3CC[C@H](C(=O)O)CC3)c2C(F)(F)F)c(Cl)c1` [Example 537, trans-4-(4-((cyclohexylmethyl)(2-(2,6-dichloro-4-methylphenyl)-2-oxoethyl)carbamoyl)-5-(trifluoromethyl)-1H-pyrazol-1-yl)cyclohexanecarboxylic acid], the figure is 2.24 nM; as for `CC(C)(C)CN(CC(=O)c1c(Cl)cnc2ccccc12)C(=O)c1cnn([C@H]2CC[C@](C)(C(=O)O)CC2)c1C(F)(F)F` [Example 538, trans-4-(4-((2-(3-chloro-4-quinolinyl)-2-oxoethyl)(2,2-dimethylpropyl)carbamoyl)-5-(trifluoromethyl)-1H-pyrazol-1-yl)-1-methylcyclohexanecarboxylic acid], 112 nM. As for `O=C(CN(Cc1ccc(F)cc1)C(=O)c1cnn([C@H]2CC[C@H](C(=O)O)CC2)c1C(F)(F)F)c1c(Cl)cnc2ccccc12` [Example 539, trans-4-(4-((2-(3-chloro-4-quinolinyl)-2-oxoethyl)(4-fluorobenzyl)carbamoyl)-5-(trifluoromethyl)-1H-pyrazol-1-yl)cyclohexanecarboxylic acid], the figure is 89.1 nM. As for `O=C(CN(Cc1ccc(Cl)cc1)C(=O)c1cnn([C@H]2CC[C@H](C(=O)O)CC2)c1C(F)(F)F)c1c(Cl)ccc(F)c1Cl` [Example 541, trans-4-(4-((4-chlorobenzyl)(2-(2,6-dichloro-3-fluorophenyl)-2-oxoethyl)carbamoyl)-5-(trifluoromethyl)-1H-pyrazol-1-yl)cyclohexanecarboxylic acid], the IC50 was 3.16 nM. As for `Cc1cc(Cl)c(C(=O)CN(CC(C)(C)C)C(=O)c2cnn([C@H]3CC[C@H](C(=O)O)CC3)c2C(F)(F)F)c(Cl)n1` [Example 542, trans-4-(4-((2-(2,4-dichloro-6-methyl-3-pyridinyl)-2-oxoethyl)(2,2-dimethylpropyl)carbamoyl)-5-(trifluoromethyl)-1H-pyrazol-1-yl)cyclohexanecarboxylic acid], the figure is 79.4 nM; as for `Cc1cc(Cl)c(C(=O)CN(Cc2ccc(Cl)cc2)C(=O)c2cnn([C@H]3CC[C@H](C(=O)O)CC3)c2C(F)(F)F)c(Cl)n1` [Example 543, trans-4-(4-((4-chlorobenzyl)(2-(2,4-dichloro-6-methyl-3-pyridinyl)-2-oxoethyl)carbamoyl)-5-(trifluoromethyl)-1H-pyrazol-1-yl)cyclohexanecarboxylic acid], 3.31 nM; as for `Cc1cc(C)n(CCN(Cc2ccc(Cl)cc2)C(=O)c2cnn([C@H]3CC[C@H](C(=O)O)CC3)c2C(F)(F)F)c(=O)c1` [Example 544, trans-4-(4-((4-chlorobenzyl)(2-(4,6-dimethyl-2-oxo-1(2H)-pyridinyl)ethyl)carbamoyl)-5-(trifluoromethyl)-1H-pyrazol-1-yl)cyclohexanecarboxylic acid], 3630 nM.
